Experimental data taken from patent publication US10463651B2, “3-(1H-pyrrolo[3,2-C]pyridin-2-YL)-1H-indazoles and therapeutic uses thereof” (Samumed, LLC, priority 2015, dated 2019).

How the values were obtained:
Format in all cases: cell-based
[1] = system: Wnt activity (Sp5-Luc reporter, SW480 colon carcinoma cells); test: Screening assay for Wnt activity (Sp5-Luc reporter gene assay in SW480 cells); conditions: Homo sapiens; for EC50: Sp5-Luc reporter, SW480 cells, incubated overnight
How it was run: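 SW480 colon carcinoma cells stably carrying Sp5 promoter (eight TCF/LEF sites)-driven firefly luciferase, plated at 4,000 cells/well in 1% FBS medium and incubated overnight at 37° C. Luminescence normalised to DMSO-only cells; EC50 from four-parameter variable-slope nonlinear regression.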

[2] = system: SW480 colon cancer cells; test: Cell viability assay (CellTiter-Blue); conditions: Homo sapiens, 96 h; SW480 cell viability, four days, CellTiter-Blue
How it was run: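 Fluorescence from resazurin reduced to resorufin by metabolically active cells was the read-out, taken after ~3 h with CellTiter-Blue.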

[3] = system: primary human fibroblasts derived from IPF patients (LL29 cells) treated with TGF-β1; test: Inhibition of the fibrotic process (αSMA staining) in TGF-β1-treated fibroblasts; conditions: Fibroblast, 96 h, % αSMA-positive LL29 cells, TGF-β1 20 ng/mL, 4 days
How it was run: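 LL29 fibroblasts from IPF patients, 1,500 cells/well in F12 with 1% FBS, stimulated with TGF-β1; TGF-β1 plus DMSO wells as controls. Incubation 4 days, then SYTOX green 1 μM final for 30 min at room temperature. Fibrotic response read as αSMA staining.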

[4] = system: primary human mesenchymal stem cells (hMSCs); test: Induction of chondrogenesis in hMSCs (Rhodamine B / Nile Red nodule imaging); conditions: for EC50: concentration required to induce 50% levels of chondrogenesis vs TGF-β3 positive control, read-out: Conc (nM) of 50% TGF-β3 activity; for Emax: maximum activity relative to TGF-β3 (10 ng/mL) positive control, read-out: Max. Activity as % TGF-β3 activity
From the text: Representative compounds were screened using primary human mesenchymal stem cells (hMSCs) to determine their ability to induce chondrogenesis (process by which cartilage is developed).
Primary human mesenchymal stem cells (hMSCs) were purchased from Lonza (Walkersville, Md.) and expanded in Mesenchymal Stem Cell Growth Media (Lonza). Cells between passage 3 and 6 were used for the experiments.
Area of nodules in each well was normalized to the average of 3 DMSO treated wells on the same plate using Excel (Microsoft Inc.). The normalized averages (fold change over DMSO) of 2 or 3 replicate wells for each compound concentration were calculated. Due to solubility limitations of some of the compounds, curve fitting was incomplete leading to inaccurate EC50 determinations.
Using TGF-β3 as a positive control, the concentration of representative compounds required to induce 50% levels of chondrogenesis is reported. In addition, the maximum activity of each compound and the respective dose that each compound reached maximum chondrogenesis activity is reported.

[5] = system: IL-6 (THP-1 cells); test: IL-6 inhibition in LPS-stimulated THP-1 cells (HTRF); conditions: Homo sapiens; IL6 by HTRF, THP-1 cells, 500 ng/mL LPS, 22 hours
How it was run: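 THP-1 cells, pre-cultured 24 h in 1% FBS medium, treated with compound 2 h at 37 °C, then stimulated with 500 ng/mL LPS for 22 h. Secreted IL-6 measured by HTRF as the 665/620 nm ratio. Values normalized to DMSO; EC50 from four-parameter fit, duplicates.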

SMILES	EC50 [1] [nM]	EC50 [2] [nM]	EC50 [3] [nM]	EC50 [4] [nM]	Emax [4] [%]	EC50 [5] [nM]	inhibition at 10 µM ([1]; SW480, read-out: percent inhibition at 10 μM) [%]
Fc1ccc(-c2nccc3[nH]c(-c4n[nH]c5ccc(-c6cncc(CN7CCCC7)c6)cc45)cc23)cc1 [Compound 42, 3-(4-(4-Fluorophenyl)-1H-pyrrolo[3,2-c]pyridin-2-yl)-5-(5-(pyrrolidin-1-ylmethyl)pyridin-3-yl)-1H-indazole]	3620	1410	1340	30	98	9010	–
CCC(=O)Nc1cncc(-c2ccc3[nH]nc(-c4cc5c(-c6cccc(F)c6)nccc5[nH]4)c3c2)c1 [Compound 1, N-(5-(3-(4-(3-Fluorophenyl)-1H-pyrrolo[3,2-c]pyridin-2-yl)-1H-indazol-5-yl)pyridin-3-yl)propionamide]	45	102	41	–	16	35	–
CN1CCN(c2nccc3[nH]c(-c4n[nH]c5ccc(-c6cncc(NC(=O)C7CCCCC7)c6)cc45)cc23)CC1 [Compound 247, N-(5-(3-(4-(4-Methylpiperazin-1-yl)-1H-pyrrolo[3,2-c]pyridin-2-yl)-1H-indazol-5-yl)pyridin-3-yl)cyclohexanecarboxamide]	5270	4820	3350	–	38	8870	–
CC(C)(C)CC(=O)Nc1cncc(-c2ccc3[nH]nc(-c4cc5cnccc5[nH]4)c3c2)c1 [Compound 268, N-(5-(3-(1H-Pyrrolo[3,2-c]pyridin-2-yl)-1H-indazol-5-yl)pyridin-3-yl)-3,3-dimethylbutanamide]	120	236	199	10	208	94	–
CN(C)Cc1cncc(-c2ccc3[nH]nc(-c4cc5c(-c6ccc(F)cc6)nccc5[nH]4)c3c2)c1 [Compound 41, 1-(5-(3-(4-(4-Fluorophenyl)-1H-pyrrolo[3,2-c]pyridin-2-yl)-1H-indazol-5-yl)pyridin-3-yl)-N,N-dimethylmethanamine]	> 10000	2990	2650	–	46	9400	55.7
CS(=O)(=O)NCc1cc(F)cc(-c2nccc3[nH]c(-c4n[nH]c5ccc(-c6cncc(CN7CCC(F)(F)C7)c6)cc45)cc23)c1 [Compound 502, N-(3-(2-(5-(5-((3,3-Difluoropyrrolidin-1-yl)methyl)pyridin-3-yl)-1H-indazol-3-yl)-1H-pyrrolo[3,2-c]pyridin-4-yl)-5-fluorobenzyl)methanesulfonamide]	172	230	160	300	175	63	–
c1cc2[nH]c(-c3n[nH]c4ccc(-c5cncc(CN6CCCCC6)c5)cc34)cc2cn1 [Compound 267, 5-(5-(Piperidin-1-ylmethyl)pyridin-3-yl)-3-(1H-pyrrolo[3,2-c]pyridin-2-yl)-1H-indazole]	685	422	571	100	122	288	–
O=C(Cc1ccccc1)Nc1cncc(-c2ccc3[nH]nc(-c4cc5cnccc5[nH]4)c3c2)c1 [Compound 262, N-(5-(3-(1H-Pyrrolo[3,2-c]pyridin-2-yl)-1H-indazol-5-yl)pyridin-3-yl)-2-phenylacetamide]	1760	3490	757	10	119	1700	–
O=C(Nc1cncc(-c2ccc3[nH]nc(-c4cc5cnccc5[nH]4)c3c2)c1)C1CCC1 [Compound 273, N-(5-(3-(1H-Pyrrolo[3,2-c]pyridin-2-yl)-1H-indazol-5-yl)pyridin-3-yl)cyclobutanecarboxamide]	75	441	95	10	213	118	–
